Measured values: PubChem BioAssay (NCI)
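How tested: cells in 96-well plates exposed to compound for 48 hours at five concentrations. GI50: concentration for 50% inhibition of growth. TGI marks complete inhibition of growth.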

Experiments:
Experiment in all cases: inhibition of tumour cell growth, NCI panel, 48 h
ACHN renal = system: ACHN renal
SK-MEL-28 melanoma = system: SK-MEL-28 melanoma
SN12C renal = system: SN12C renal
MCF7 breast = system: MCF7 breast
HCC-2998 colon = system: HCC-2998 colon
MDA-MB-231 breast = system: MDA-MB-231 breast
NCI-H460 lung = system: NCI-H460 lung
EKVX NSCLC = system: EKVX NSCLC
SF-268 CNS = system: SF-268 CNS
OVCAR-4 ovarian = system: OVCAR-4 ovarian
KM12 colon = system: KM12 colon
CAKI-1 renal = system: CAKI-1 renal
DU-145 prostate = system: DU-145 prostate
UACC-62 melanoma = system: UACC-62 melanoma
NCI/ADR-RES ovarian = system: NCI/ADR-RES ovarian
LOX IMVI melanoma = system: LOX IMVI melanoma
SNB-75 CNS = system: SNB-75 CNS
HOP-92 NSCLC = system: HOP-92 NSCLC
HCT-15 colon = system: HCT-15 colon
SR leukemia = system: SR leukemia
BT-549 breast = system: BT-549 breast
NCI-H522 lung = system: NCI-H522 lung
K-562 leukemia = system: K-562 leukemia
T-47D breast = system: T-47D breast
MOLT-4 leukemia = system: MOLT-4 leukemia
UACC-257 melanoma = system: UACC-257 melanoma
A498 renal = system: A498 renal
786-0 renal = system: 786-0 renal
MDA-MB-435 = system: MDA-MB-435
IGROV1 ovarian = system: IGROV1 ovarian
RPMI-8226 leukemia = system: RPMI-8226 leukemia
SK-MEL-2 melanoma = system: SK-MEL-2 melanoma
OVCAR-3 ovarian = system: OVCAR-3 ovarian
SF-295 CNS = system: SF-295 CNS
SK-OV-3 ovarian = system: SK-OV-3 ovarian
TK-10 renal = system: TK-10 renal
NCI-H226 lung = system: NCI-H226 lung
SW-620 colon = system: SW-620 colon
U251 CNS = system: U251 CNS
SNB-19 CNS = system: SNB-19 CNS
UO-31 renal = system: UO-31 renal
M14 melanoma = system: M14 melanoma
SK-MEL-5 melanoma = system: SK-MEL-5 melanoma
COLO 205 colon = system: COLO 205 colon
HOP-62 NSCLC = system: HOP-62 NSCLC
HS 578T breast = system: HS 578T breast
PC-3 prostate = system: PC-3 prostate
HL-60(TB) leukemia = system: HL-60(TB) leukemia
SF-539 CNS = system: SF-539 CNS
CCRF-CEM leukemia = system: CCRF-CEM leukemia
OVCAR-5 ovarian = system: OVCAR-5 ovarian
MALME-3M melanoma = system: MALME-3M melanoma
HCT-116 colon = system: HCT-116 colon
HT29 colon = system: HT29 colon
OVCAR-8 ovarian = system: OVCAR-8 ovarian
A549 NSCLC = system: A549 NSCLC
NCI-H23 lung = system: NCI-H23 lung

`COc1ccc(-c2cnc(NC(=O)CCCCCCNC(=O)C(O)(O)C(F)(F)F)s2)cc1` gave a GI50 (ACHN renal) of 1010 nM, a TGI (ACHN renal) of 4190 nM and a GI50 (SK-MEL-28 melanoma) of 1370 nM. The TGI (SK-MEL-28 melanoma) was over 30800 nM, the GI50 (SN12C renal) was 1210 nM and the TGI (SN12C renal) was 10600 nM. The GI50 (MCF7 breast) was 1310 nM, the TGI (MCF7 breast) was over 30800 nM and the GI50 (HCC-2998 colon) was 1360 nM. For the same compound, the TGI (HCC-2998 colon) was 4530 nM, the GI50 (MDA-MB-231 breast) was 719 nM and the TGI (MDA-MB-231 breast) was 2500 nM. The GI50 (NCI-H460 lung) was 735 nM, the TGI (NCI-H460 lung) was 5790 nM and the GI50 (EKVX NSCLC) was 1970 nM. For the same compound, the TGI (EKVX NSCLC) was over 30800 nM, the GI50 (SF-268 CNS) was 1130 nM and the TGI (SF-268 CNS) was 6260 nM. It also gave a GI50 (OVCAR-4 ovarian) of 2110 nM, a TGI (OVCAR-4 ovarian) of over 30800 nM and a GI50 (KM12 colon) of 1080 nM. It also gave a TGI (KM12 colon) of 5480 nM, a GI50 (CAKI-1 renal) of 975 nM and a TGI (CAKI-1 renal) of 7450 nM. The GI50 (DU-145 prostate) was 1030 nM, the TGI (DU-145 prostate) was 7670 nM and the GI50 (UACC-62 melanoma) was 662 nM. It also gave a TGI (UACC-62 melanoma) of 1880 nM, a GI50 (NCI/ADR-RES ovarian) of 1610 nM and a TGI (NCI/ADR-RES ovarian) of 8780 nM. The GI50 (LOX IMVI melanoma) was 678 nM, the TGI (LOX IMVI melanoma) was 1760 nM and the GI50 (SNB-75 CNS) was 1760 nM. The TGI (SNB-75 CNS) was over 30800 nM, the GI50 (HOP-92 NSCLC) was 561 nM and the TGI (HOP-92 NSCLC) was 2110 nM. It also gave a GI50 (HCT-15 colon) of 1600 nM, a TGI (HCT-15 colon) of 8010 nM and a GI50 (SR leukemia) of 601 nM. For the same compound, the TGI (SR leukemia) was over 30800 nM, the GI50 (BT-549 breast) was 1810 nM and the TGI (BT-549 breast) was 12900 nM. For the same compound, the GI50 (NCI-H522 lung) was 908 nM, the TGI (NCI-H522 lung) was 4560 nM and the GI50 (K-562 leukemia) was 709 nM. It also gave a TGI (K-562 leukemia) of over 30800 nM, a GI50 (T-47D breast) of 864 nM and a TGI (T-47D breast) of 3780 nM. The GI50 (MOLT-4 leukemia) was 1100 nM, the TGI (MOLT-4 leukemia) was over 30800 nM and the GI50 (UACC-257 melanoma) was 1570 nM. It also gave a TGI (UACC-257 melanoma) of 24600 nM, a GI50 (A498 renal) of 288 nM and a TGI (A498 renal) of 1530 nM. For the same compound, the GI50 (786-0 renal) was 1270 nM, the TGI (786-0 renal) was 15100 nM and the GI50 (MDA-MB-435) was 1000 nM. It also gave a TGI (MDA-MB-435) of 10200 nM, a GI50 (IGROV1 ovarian) of 987 nM and a TGI (IGROV1 ovarian) of 5310 nM. The GI50 (RPMI-8226 leukemia) was 857 nM, the TGI (RPMI-8226 leukemia) was over 30800 nM and the GI50 (SK-MEL-2 melanoma) was 1010 nM. For the same compound, the TGI (SK-MEL-2 melanoma) was 4490 nM, the GI50 (OVCAR-3 ovarian) was 635 nM and the TGI (OVCAR-3 ovarian) was 2110 nM. The GI50 (SF-295 CNS) was 742 nM, the TGI (SF-295 CNS) was 1820 nM and the GI50 (SK-OV-3 ovarian) was 863 nM. For the same compound, the TGI (SK-OV-3 ovarian) was 2270 nM, the GI50 (TK-10 renal) was 481 nM and the TGI (TK-10 renal) was over 30800 nM. It also gave a GI50 (NCI-H226 lung) of 2200 nM, a TGI (NCI-H226 lung) of 12000 nM and a GI50 (SW-620 colon) of 623 nM. For the same compound, the TGI (SW-620 colon) was 2360 nM, the GI50 (U251 CNS) was 862 nM and the TGI (U251 CNS) was 3780 nM. The GI50 (SNB-19 CNS) was 1280 nM, the TGI (SNB-19 CNS) was 9440 nM and the GI50 (UO-31 renal) was 904 nM. It also gave a TGI (UO-31 renal) of 3980 nM, a GI50 (M14 melanoma) of 1450 nM and a TGI (M14 melanoma) of over 30800 nM. It also gave a GI50 (SK-MEL-5 melanoma) of 921 nM, a TGI (SK-MEL-5 melanoma) of 2860 nM and a GI50 (COLO 205 colon) of 540 nM. It also gave a TGI (COLO 205 colon) of 1280 nM, a GI50 (HOP-62 NSCLC) of 1140 nM and a TGI (HOP-62 NSCLC) of over 30800 nM. The GI50 (HS 578T breast) was 952 nM, the TGI (HS 578T breast) was 10500 nM and the GI50 (PC-3 prostate) was 1210 nM. The TGI (PC-3 prostate) was over 30800 nM, the GI50 (HL-60(TB) leukemia) was 1400 nM and the TGI (HL-60(TB) leukemia) was over 30800 nM. The GI50 (SF-539 CNS) was 1370 nM, the TGI (SF-539 CNS) was over 30800 nM and the GI50 (CCRF-CEM leukemia) was 1340 nM. The TGI (CCRF-CEM leukemia) was over 30800 nM, the GI50 (OVCAR-5 ovarian) was 907 nM and the TGI (OVCAR-5 ovarian) was 5500 nM. It also gave a GI50 (MALME-3M melanoma) of 1020 nM, a TGI (MALME-3M melanoma) of 3360 nM and a GI50 (HCT-116 colon) of 540 nM. It also gave a TGI (HCT-116 colon) of 4410 nM, a GI50 (HT29 colon) of 946 nM and a TGI (HT29 colon) of over 30800 nM. It also gave a GI50 (OVCAR-8 ovarian) of 967 nM, a TGI (OVCAR-8 ovarian) of 6850 nM and a GI50 (A549 NSCLC) of 1380 nM. The TGI (A549 NSCLC) was 11500 nM, the GI50 (NCI-H23 lung) was 1230 nM and the TGI (NCI-H23 lung) was 8080 nM.
